Reference: patent US20130275051A1, “COMPUTING DEVICE AND METHOD FOR DETECTING CELL DEATH IN A BIOLOGICAL SAMPLE” (priority 2011, published 2013)

System: human bladder carcinoma (HT-1376) tumors
Assay: OCT decorrelation time in tumors grown in dorsal skin-fold window chamber model
Assay type: in vivo
Conditions: mice, single tail vein injection 100 mg/m2, 0, 24 and 48 hours, FIG. 11; cell death confirmed by histological data
Source text: An in-vivo tumor model used in the successful experiment consisted of human bladder carcinoma (HT-1376) tumors grown within a dorsal skin-fold window chamber model in a plurality of mice. […] A custom built 36 kHz swept source OCT system (similar to system 100) was used for in-vivo acquisition of data. For each imaging time point, two-dimensional frames of OCT data were acquired at 200 frames per second over approximately 8 seconds. Each frame contained 180 axial scans and covered a lateral distance of 3 mm. Data sets were acquired from imaging planes within the window chamber of each mouse. Method 200 was applied to each pixel location of an ROI within tumors at 0 hours, 24 hours and 48 hours to obtain an average decorrelation time at each of 0 hours, 24 hours and 48 hours.

N.N.[Cl][Pt][Cl] [cisplatin]
average decorrelation time within tumor ROI: increase in average decorrelation time
